Measurements from the supplement of paper PMC8837787.

Tested on: Saccharomyces cerevisiae ABC16-Green Monster
Assay: growth inhibition at single dose (up to 150 µM), below the 70% cut-off for dose-response; higher = more potent
Conditions: 18 h; 30 °C; YPD
Outline: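 Drug-sensitive S. cerevisiae ABC16-Green Monster cells were grown overnight in YPD at 30 °C and diluted to log phase (OD600 0.1–0.2). Each library compound was added at one dose of 150 µM to 200 µl culture per well in 96-well plates, in biological duplicates, with untreated cultures alongside. OD600 was read at 0 h and after 18 h at 30 °C. The value is percent growth inhibition; compounds below 70% in both replicates were not taken to dose-response.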

SMILES	growth inhibition at single dose [%]
Cc1ccn2cc(C(=O)Nc3nnc(CC(C)C)s3)nc2c1	< 70
Cc1ccc(C)c(S(=O)(=O)N2CCN(C(=O)c3[nH]nc4ccccc34)CC2)c1	< 70
N=C1NC(=O)C(Cc2ccc(OC(F)(F)F)cc2)S1 (stereo unspecified)	< 70
CN(CC(=O)Nc1ccccc1N1CCCC1)Cc1ccc2ccccc2c1	< 70
Cc1ccc(O)c(C(=O)c2c[nH]c(-c3nc4ccccc4[nH]3)c2)c1	< 70
O=c1cc(CN2CCCCCC2)nc2sccn12	< 70
COc1ccc(-c2cnc3cnc(-c4cccc(OC(C)C)c4)cn23)cc1	< 70
CN(C)CC(C)(C)CNc1nn2cc(-c3ccccc3)nc2s1	< 70
O=C(Nc1ccc(N2CCOCC2)cn1)c1ccccc1	< 70
O=C(Nc1ccc(F)c(-c2nc3cc(-c4ccccc4)cnc3[nH]2)c1)N1CCCC1	< 70
Cc1cccc(N2C(=O)C3C(C2=O)C2(c4ccccc4)C(=O)C3(c3ccccc3)C(c3ccc4c(c3)OCO4)=C2c2ccc3c(c2)OCO3)c1 (stereo unspecified)	< 70
CCc1nc2ccc(Cl)cn2c1C(=O)NCc1ccc(N2CCC(c3ccc(OC(F)(F)F)cc3)CC2)cc1	< 70
COc1ccc(C2=NN(C3CCCCCC3)C(=O)[C@@H]3CC=CC[C@H]23)cc1OCCCCOc1ccc(-c2nn[nH]n2)cc1	< 70
CCN1CCN(Cc2ccc(NC(=O)c3cc4ccc5cccnc5c4[nH]3)cc2)CC1	< 70
Nc1ncc(-c2cn[nH]c2)cc1-c1nc2cc(Cl)cnc2[nH]1	< 70
O=C(CN1C(=O)CCOc2ccccc21)N1CCN(C(=O)C2COc3ccccc3O2)CC1 (stereo unspecified)	< 70
CN1CCN(c2nccc3[nH]c(-c4cccc(F)c4)cc23)CC1	< 70
CSC1=NC(=Nc2c(C)cccc2C)C2(CCC(C(C)(C)C)CC2)N1c1ccc(Cl)cc1 (stereo unspecified)	< 70
CC(C)(C)n1nc(Cc2ccc(F)c(Cl)c2)c2c(N)ncnc21	< 70
Cc1cc(Cl)ccc1NC(=O)CCc1ccc(S(=O)(=O)NCC(C)C)cc1	< 70
O=C(NC(=O)c1csnn1)Nc1cc(C(F)(F)F)cc(C(F)(F)F)c1	< 70
Cc1cc(O)nc(-n2nc(C)cc2C)n1	< 70

SMILES	growth inhibition at single dose [%]
CC(=O)Nc1cccc2c1CCN(c1ncnc3sccc13)C2	< 70
Cc1ccc(-c2cnn3c(N4CCCC4)cc(C)nc23)cc1	< 70
O=C(Nc1ncccc1O)c1ccc(S(=O)(=O)NCCc2cccs2)cc1	< 70
O=C(Nc1ncccc1O)c1ccc(-n2cnc3ccccc32)cc1	< 70
CC(C)(C)CN1C(=O)C(c2ccccc2)(c2ccccc2)N=C1N	< 70
Cc1ccc2[nH]c(C3CCCNC3)c(-c3ccncc3)c2c1 (stereo unspecified)	< 70
CC(C)(C)C(=O)Nc1ccc(-c2nc3ncccc3o2)c(Cl)c1	< 70
COC(=O)c1c(C)[nH]c(C2=NNC(=NC3CC3)SC2)c1C	< 70
CC(C)(C)CC(C)(C)NCC(O)COc1ccc(Cl)cc1Cl (stereo unspecified)	< 70
CCN(CC)CCNc1ncnc2c1[nH]c1ccc(Br)cc12	< 70
C[C@@H]1[C@H](O)[C@@H](C)/C=C/C=C/C=C/C=C/C=C/C=C/C=C/[C@H](O[C@@H]2O[C@H](C)[C@@H](O)[C@H](N)[C@@H]2O)C[C@@H]2O[C@](O)(C[C@@H](O)C[C@@H](O)[C@H](O)CC[C@@H](O)C[C@@H](O)CC(=O)O[C@H]1C)C[C@H](O)[C@H]2C(=O)O	< 70
CC(C)=CCN1CCC(C(=O)Nc2ccc(-c3nc4ccccc4[nH]3)cc2)CC1	< 70
Cc1c(C)n(CCCO)c2ncn3nc(-c4ccccc4)nc3c12	< 70
Cc1cc(NC(=O)c2ccc(-c3ccccc3)cc2)no1	< 70
Cn1c(C(=O)c2cccc3ccccc23)nc2ccccc21	< 70
CC(C)n1ncc2c(C(=O)NCC(c3cccs3)N3CCOCC3)cc(-c3ccccc3)nc21 (stereo unspecified)	< 70
CCCCn1c(N)c(N(C)CC(=O)Nc2scc(-c3ccccc3)c2C(=O)OCC)c(=O)[nH]c1=O	< 70
COc1ccc(CCN2CCC(CN(C)Cc3cnn(-c4ccccc4)c3)CC2)cc1	< 70
O=C(NC1CC1)c1ccc(N2CCC(Cc3ccccc3)CC2)nc1	< 70
N=C(N)Nc1ccc(-c2ccc(-c3ccc(N=C(N)N)c(Cl)c3)o2)cc1Cl	< 70
O=C(NCCc1ccn(-c2ccccc2)n1)C1CCCCC1	< 70
NCCC(O)C(=O)N[C@@H]1C[C@H](N)[C@@H](OC2O[C@H](CN)[C@@H](O)[C@H](O)[C@H]2O)[C@H](O)C1OC1O[C@H](CO)[C@@H](O)[C@H](N)[C@H]1O (stereo partly specified)	< 70

SMILES	growth inhibition at single dose [%]
Oc1c(I)cc(I)c2cccnc12	< 70
CCCCOC(=O)c1ccc(Nc2cc(C)nc3ccc(OC)cc23)cc1	< 70
COc1cccc(C=Cc2nc(=O)c3ccccc3o2)c1OC	< 70
CC(C)c1cc(C(=O)Nc2nnc3ccccn23)c2cnn(C(C)C)c2n1	< 70
COc1ccc(C(=O)Nc2ccc(Cl)cc2C(=O)Nc2ccncc2)cc1	< 70
COc1ccc(CNC(=O)c2cc3c(=O)n4ccccc4nc3n(CCc3ccccc3)c2=N)cc1	< 70
O=C(NC1CCCCC1)N1CCN(Cc2ccc3c(c2)OCO3)CC1	< 70
Nc1nc(Nc2cccc(F)c2)nc2ccccc12	< 70
O=C(Nc1nc2c(s1)CCCC2)c1cc(F)c(F)c(F)c1F	< 70
CCc1c(C)[nH]c2cc(-c3ccc(OC)cc3)nn2c1=O	< 70
Oc1c(CN2CCN(c3ccccc3F)CC2)cc(Br)c2cccnc12	< 70
COc1ccc(C2=NN(C3CCCCCC3)C(=O)C2(C)C)cc1OCCCCOc1ccc(-c2nn[nH]n2)cc1	< 70
Cc1cc(NC(=O)C2c3ccccc3C(=O)N(CC(C)C)C2c2cccs2)no1 (stereo unspecified)	< 70
O=C(Cn1ncc(Cl)c(Cl)c1=O)N1N=C(c2ccco2)CC1c1cccs1 (stereo unspecified)	< 70
N#CCN(CCCCN1CCN(c2ccc(F)cc2)CC1)C(=O)OCc1ccccc1	< 70
CC(C)NS(=O)(=O)c1cccc(CNc2ncnc3ccccc23)c1	< 70
COc1cc(SC)ccc1C(=O)N1CCCC(C)C1 (stereo unspecified)	< 70
N#Cc1ccc(NC(=O)Cn2ncc(Cl)c(Cl)c2=O)cc1	< 70
CCOc1ccc(N2C(N)=NC(N)=NC2(C)C)cc1	< 70
COc1cc(NC(=O)COc2ccc3[nH]c4ccccc4c(=O)c3c2)c(OC)cc1Cl	< 70
CSc1nc2nc(C)c(CCC(=O)N(CC(F)(F)F)C(C)C3CC3)c(C)n2n1 (stereo unspecified)	< 70
CC1=C(C#N)C(/C=N/N(C)c2ncc(C(F)(F)F)cc2Cl)CC(=O)N1 (stereo unspecified)	< 70
